Measurements taken from the NIST ThermoML archive (doi:10.1016/j.tca.2013.08.031).

Assay: molar heat capacity at constant volume
Details: Fluid (supercritical or subcritical phases), Vacuum adiabatic calorimetry

CCC(C)O (stereo not given) [butan-2-ol]
Details | molar heat capacity at constant volume [J/K/mol]
535.75 K, Mass density=276.45 kg/m3 | 527.97
535.77 K, Mass density=276.45 kg/m3 | 533.08
535.79 K, Mass density=276.45 kg/m3 | 548.5
535.81 K, Mass density=276.45 kg/m3 | 529.67
535.83 K, Mass density=276.45 kg/m3 | 536.49
535.85 K, Mass density=276.45 kg/m3 | 560.43
535.86 K, Mass density=276.45 kg/m3 | 562.14
535.88 K, Mass density=276.45 kg/m3 | 565.55
535.9 K, Mass density=276.45 kg/m3 | 627.07
535.92 K, Mass density=198.25 kg/m3 | 287.44
535.92 K, Mass density=245.67 kg/m3 | 437.17
535.92 K, Mass density=276.45 kg/m3 | 603.13
535.92 K, Mass density=279.19 kg/m3 | 513.14
535.92 K, Mass density=284.93 kg/m3 | 498.99
535.92 K, Mass density=286.65 kg/m3 | 532.71
535.92 K, Mass density=301.19 kg/m3 | 383.21
535.92 K, Mass density=347.06 kg/m3 | 252.01
535.94 K, Mass density=284.93 kg/m3 | 419.68
535.94 K, Mass density=286.65 kg/m3 | 578.37
535.95 K, Mass density=284.93 kg/m3 | 421.31
535.95 K, Mass density=286.65 kg/m3 | 524.41
535.97 K, Mass density=284.93 kg/m3 | 349.85
535.97 K, Mass density=286.65 kg/m3 | 524.41
535.99 K, Mass density=284.93 kg/m3 | 316.57
536.01 K, Mass density=284.93 kg/m3 | 314.87
536.01 K, Mass density=286.65 kg/m3 | 402.85
536.02 K, Mass density=284.93 kg/m3 | 309.9
536.02 K, Mass density=286.65 kg/m3 | 345.48
536.04 K, Mass density=284.93 kg/m3 | 311.53
536.04 K, Mass density=286.65 kg/m3 | 354.45
536.06 K, Mass density=284.93 kg/m3 | 311.53
536.06 K, Mass density=286.65 kg/m3 | 328.36
536.07 K, Mass density=284.93 kg/m3 | 306.57
536.07 K, Mass density=286.65 kg/m3 | 328.58
536.1 K, Mass density=198.25 kg/m3 | 281.66
536.1 K, Mass density=245.67 kg/m3 | 331.55
536.1 K, Mass density=279.19 kg/m3 | 476.23
536.1 K, Mass density=284.93 kg/m3 | 291.59
536.1 K, Mass density=286.65 kg/m3 | 323.99
536.1 K, Mass density=301.19 kg/m3 | 296.49
536.1 K, Mass density=347.06 kg/m3 | 251.27
536.29 K, Mass density=198.25 kg/m3 | 285.44
536.29 K, Mass density=245.67 kg/m3 | 329.17
536.29 K, Mass density=276.45 kg/m3 | 321.32
536.29 K, Mass density=279.19 kg/m3 | 304.71
536.29 K, Mass density=284.93 kg/m3 | 286.04
536.29 K, Mass density=286.65 kg/m3 | 321.09
536.29 K, Mass density=301.19 kg/m3 | 280.18
536.29 K, Mass density=347.06 kg/m3 | 249.79
536.47 K, Mass density=245.67 kg/m3 | 323.47
536.47 K, Mass density=276.45 kg/m3 | 313.68
536.47 K, Mass density=279.19 kg/m3 | 298.27
536.47 K, Mass density=284.93 kg/m3 | 280.77
536.47 K, Mass density=286.65 kg/m3 | 317.39
536.47 K, Mass density=301.19 kg/m3 | 281.66
536.47 K, Mass density=347.06 kg/m3 | 252.75
536.65 K, Mass density=245.67 kg/m3 | 321.24
536.65 K, Mass density=276.45 kg/m3 | 308.64
536.65 K, Mass density=279.19 kg/m3 | 293.23
536.65 K, Mass density=284.93 kg/m3 | 276.92
536.65 K, Mass density=286.65 kg/m3 | 311.53
536.65 K, Mass density=301.19 kg/m3 | 277.96
536.65 K, Mass density=347.06 kg/m3 | 246.82
536.83 K, Mass density=245.67 kg/m3 | 318.35
536.83 K, Mass density=276.45 kg/m3 | 300.12
536.83 K, Mass density=279.19 kg/m3 | 287.74
536.83 K, Mass density=284.93 kg/m3 | 274.25
536.84 K, Mass density=347.06 kg/m3 | 250.53
537.02 K, Mass density=279.19 kg/m3 | 289.37
537.02 K, Mass density=284.93 kg/m3 | 272.03
537.02 K, Mass density=301.19 kg/m3 | 263.13
537.02 K, Mass density=347.06 kg/m3 | 248.31
537.2 K, Mass density=245.67 kg/m3 | 296.34
537.2 K, Mass density=276.45 kg/m3 | 295.37
537.2 K, Mass density=279.19 kg/m3 | 287.81
537.2 K, Mass density=284.93 kg/m3 | 271.51
537.2 K, Mass density=286.65 kg/m3 | 304.94
537.2 K, Mass density=301.19 kg/m3 | 266.84
537.38 K, Mass density=245.67 kg/m3 | 296.56
537.38 K, Mass density=276.45 kg/m3 | 285.37
537.38 K, Mass density=279.19 kg/m3 | 282.48
537.38 K, Mass density=284.93 kg/m3 | 270.32
537.38 K, Mass density=286.65 kg/m3 | 304.42
537.38 K, Mass density=301.19 kg/m3 | 263.13
537.57 K, Mass density=245.67 kg/m3 | 297.52
537.57 K, Mass density=276.45 kg/m3 | 284.11
537.57 K, Mass density=279.19 kg/m3 | 284.26
537.57 K, Mass density=284.93 kg/m3 | 268.17
537.57 K, Mass density=286.65 kg/m3 | 301.23
537.57 K, Mass density=301.19 kg/m3 | 260.17
537.75 K, Mass density=276.45 kg/m3 | 282.92
537.75 K, Mass density=284.93 kg/m3 | 267.36
537.75 K, Mass density=286.65 kg/m3 | 302.27
537.75 K, Mass density=301.19 kg/m3 | 260.17
537.93 K, Mass density=117 kg/m3 | 227.92
537.93 K, Mass density=279.19 kg/m3 | 277.21
537.93 K, Mass density=286.65 kg/m3 | 301.23
537.93 K, Mass density=301.19 kg/m3 | 259.43
538.11 K, Mass density=117 kg/m3 | 182.93
538.11 K, Mass density=279.19 kg/m3 | 274.92
538.11 K, Mass density=301.19 kg/m3 | 253.5
538.3 K, Mass density=279.19 kg/m3 | 277.66
538.3 K, Mass density=286.65 kg/m3 | 295.15
538.3 K, Mass density=301.19 kg/m3 | 255.72
538.48 K, Mass density=117 kg/m3 | 269.06
